Read-outs that look alike come from different tables or passages of the source.

Series [1] has as its system interior spruce somatic embryos. The series is described as follows: Ascorbic acid in nutripriming solution and germination media: germination and growth of interior spruce genotype 4-2809 somatic embryos. The format is in vivo, Picea glauca (Moench) Voss x P. engelmannii Parry ex Engelm. The procedure: Mature somatic embryos of interior spruce (Picea glauca (Moench) Voss x P. engelmannii Parry ex […].) genotype 4-2809 were desiccated with the HRHT treatment, and then nutriprimed in 3% w/v sucrose m24GMD solutions for 3 days as previously described. The nutripriming solutions were formulated with one of the following three ascorbic acid treatments; 0, 10 uM, 100 uM. The nutriprimed somatic embryos were then sown into germination boxes containing 150 ml vermiculite plus 120 ml of 3% w/v sucrose m24GMD liquid medium. […] Nutriprimed embryos from each ascorbic acid nutripriming treatment were then sown into triplicate boxes of each ascorbic acid-amended germination medium. After sowing, the germination boxes were sealed twice with ParafilmTM. Embryos were germinated and grown for two weeks under 50-70 μmol m^-2s^-1 photosynthetic photon flux of 16-hour photoperiod at an air temperature of 22° C. Then, the germinants were harvested, and measured.

Series [2] has the same test system. The format is in vivo, Picea glauca (Moench) Voss x P. engelmannii Parry ex Engelm. The conditions noted are these: for % with hyperhydricity: in vivo. The text has this: The second study assessed the effects adding various osmotica to nutripriming solutions on subsequent germination and development performance. Mature somatic embryos of interior spruce (Picea glauca (Moench) Voss x P. engelmannii Parry ex Engelm.) genotype 23-2672 were desiccated with the HRHT treatment, and then divided into 10 groups of 160 somatic embryos per group. One group was not primed and served as the HRHT control treatment for this study. […] The nutripriming solutions and embryos were placed into 250-ml Kimax® baffled flasks. The nutripriming duration was 72 hrs at temperatures ranging between 20-23° C., and a 24-hr photoperiod of 30 μmol m^−2s^−1 photosynthetic photon flux.
At the completion of the nutripriming step, the nutriprimed embryos from each treatment were divided into 8 groups of 20 embryos and sown by hand onto vermiculite media in Sigma polycarbonate boxes. The liquid media in these germination boxes were either 3% w/v sucrose m24GMD or m24GMD without sucrose. The experiment design was a random complete block design for each media type. Each nutripriming treatment had 4 replicates of 20 embryos in each germination media type. The germination boxes were placed in a germination room and grown for two weeks under 50-70 μmol m^−2s^−1 photosynthetic photon flux of 16-hour photoperiod at an air temperature of 23° C. The germinants were then harvested and assessed for germination rates, hyperhydricity rates, shoot and root length. Germination was defined as germinants having a root longer than 2 mm, and elongated hypercotyl. Hyperhydricity was defined by the thickening of hypercotyl and watery appearance of the germinants, whether germinated or not germinated.

The mark [3] stands for this setting: AA 0 μM in germination media, 10 μM in priming solution.
The mark [4] stands for this setting: AA 0 μM in germination media, 100 μM in priming solution.
The mark [5] stands for this setting: AA 1 μM in germination media, 0 μM in priming solution.
The mark [6] stands for this setting: AA 1 μM in germination media, 10 μM in priming solution.
Where [7] appears, read: AA 1 μM in germination media, 100 μM in priming solution.
Setting [8] is: AA 10 μM in germination media, 0 μM in priming solution.
Where [9] appears, read: AA 10 μM in germination media, 10 μM in priming solution.
The mark [10] stands for this setting: AA 10 μM in germination media, 100 μM in priming solution.
[11] abbreviates: AA 100 μM in germination media, 0 μM in priming solution.
[12] abbreviates: AA 100 μM in germination media, 10 μM in priming solution.
Where [13] appears, read: AA 100 μM in germination media, 100 μM in priming solution.
The mark [14] stands for this setting: AA 1000 μM in germination media, 0 μM in priming solution.
Where [15] appears, read: AA 1000 μM in germination media, 10 μM in priming solution.
The mark [16] stands for this setting: AA 1000 μM in germination media, 100 μM in priming solution.
The mark [17] stands for this setting: germination media m24GMD (without sucrose), osmoticant levels as E220.
The mark [18] stands for this setting: germination media m24GMD plus 3% sucrose, osmoticant in m24GMD priming solution (w/v): 1% betaine, 1.65% fructose, glucose, mannitol, sorbitol, 3% lactose, maltose, sucrose, 10% PEG 4000, 72 hrs.
Setting [19] is: germination media m24GMD plus 3% sucrose, osmoticant levels as E220.

Take `O=C1O[C@H]([C@@H](O)CO)C(O)=C1O` [AA, Ascorbic acid]: the Germination % in series [1] (setting [3]) is listed as 100.0 ± 0.0%; in series [1] (setting [4]), 100.0 ± 0.0%; in series [1] (setting [5]), 96.7 ± 3.3%; in series [1] (setting [6]) it was 100.0 ± 0.0%; in series [1] (setting [7]) it was 100.0 ± 0.0%; in series [1] (setting [8]), 97.5 ± 2.5%. For the same molecule, the Germination % was found to be 96.7 ± 3.3% in series [1] (setting [9]); 100.0 ± 0.0% in series [1] (setting [10]); 93.3 ± 3.3% in series [1] (setting [11]); 100.0 ± 0.0% in series [1] (setting [12]); 100.0 ± 0.0% in series [1] (setting [13]); 100.0 ± 0.0% in series [1] (setting [14]). The Germination % in series [1] (setting [15]) and in series [1] (setting [16]) was 100.0 ± 0.0% in each case. The Root length in series [1] (setting [3]) is on record as 2.59 ± 0.26 cm; in series [1] (setting [4]), 3.56 ± 0.37 cm; in series [1] (setting [5]), 1.90 ± 0.23 cm; in series [1] (setting [6]) it was 2.07 ± 0.22 cm; in series [1] (setting [8]) it was 2.46 ± 0.30 cm; in series [1] (setting [9]), 2.82 ± 0.36 cm. For the same molecule, the Root length in series [1] (setting [10]) is 3.24 ± 0.32 cm; in series [1] (setting [11]), 2.50 ± 0.33 cm; in series [1] (setting [12]), 3.18 ± 0.42 cm; in series [1] (setting [13]), 3.61 ± 0.39 cm; in series [1] (setting [14]), 2.11 ± 0.25 cm; in series [1] (setting [15]) it was 2.55 ± 0.20 cm. The molecule also had a Root length in series [1] (setting [16]) of 2.19 ± 0.26 cm. The Rooting % was found to be 86.7 ± 3.3% in series [1] (setting [3]); 96.7 ± 3.3% in series [1] (setting [4]); 85.8 ± 3.0% in series [1] (setting [5]); 86.7 ± 8.8% in series [1] (setting [6]); 90.0 ± 0.0% in series [1] (setting [7]); 87.5 ± 6.3% in series [1] (setting [8]). Moreover, the Rooting % in series [1] (setting [9]) stood at 86.7 ± 3.3%; in series [1] (setting [10]) it was 96.7 ± 3.3%; in series [1] (setting [11]) it was 63.3 ± 8.8%; in series [1] (setting [12]), 78.2%; in series [1] (setting [13]) it was 73.0%; in series [1] (setting [14]), 90.0 ± 0.0%. The Rooting % is 95.0 ± 5.0% in series [1] (setting [15]) and 90.0 ± 5.8% in series [1] (setting [16]). Also, the Shoot length in series [1] (setting [3]) was found to be 1.86 ± 0.10 cm; in series [1] (setting [4]), 2.07 ± 0.11 cm; in series [1] (setting [5]), 1.68 ± 0.10 cm; in series [1] (setting [6]), 1.83 ± 0.11 cm; in series [1] (setting [7]) it was 1.79 ± 0.09 cm; in series [1] (setting [8]), 1.84 ± 0.09 cm. Also, the Shoot length in series [1] (setting [9]) amounted to 1.97 ± 0.19 cm; in series [1] (setting [10]) it was 2.33 ± 0.11 cm; in series [1] (setting [11]) it was 1.81 ± 0.09 cm; in series [1] (setting [12]), 2.02 ± 0.11 cm; in series [1] (setting [13]), 2.12 ± 0.11 cm; in series [1] (setting [14]), 1.79 ± 0.14 cm. Further, the Shoot length is 2.00 ± 0.09 cm in series [1] (setting [15]) and 1.75 ± 0.15 cm in series [1] (setting [16]).

On to `C[N+](C)(C)CC(=O)O` [betaine], for which the Germination % in series [2] (setting [17]) stood at 45.0 ± 26.3%; in series [2] (setting [18]), 100%. Moreover, the Root length in series [2] (setting [17]) stood at 0.4 ± 0.2 mm; in series [2] (setting [19]), 12.2 ± 0.8 mm. The Shoot length came to 11.2 ± 0.3 mm in series [2] (setting [17]) and 14.2 ± 0.3 mm in series [2] (setting [19]). Moreover, the “% with hyperhydricity” value in series [2] came out at 76.3 ± 19.1%.

For the molecule `O=C(CO)[C@@H](O)[C@H](O)[C@H](O)CO` [fructose], the Germination % in series [2] (setting [17]) is reported as 87.5 ± 7.8%; in series [2] (setting [18]) it was 100%. For the same molecule, the Root length in series [2] (setting [17]) came to 2.1 ± 0.1 mm; in series [2] (setting [19]), 12.2 ± 0.8 mm. Moreover, the Shoot length was determined as 10.0 ± 0.3 mm in series [2] (setting [17]) and 13.5 ± 0.3 mm in series [2] (setting [19]). Besides, the “% with hyperhydricity” value in series [2] is recorded as 86.3 ± 9.4%.

In series [2] (setting [17]), `OC[C@H]1O[C@@H](O[C@H]2[C@H](O)[C@@H](O)C(O)O[C@@H]2CO)[C@H](O)[C@@H](O)[C@H]1O` (some centres unmarked) [lactose] displayed a Germination % of 27.6 ± 24.3%, a Root length of 0.3 ± 0.1 mm and a Shoot length of 11.5 ± 0.2 mm. For the same molecule, the Germination % in series [2] (setting [18]) came out at 100%. Also, in series [2] (setting [19]), the Root length was found to be 12.4 ± 0.8 mm and the Shoot length was 15.5 ± 0.3 mm. In series [2], the “% with hyperhydricity” value turned out to be 100%.

Take `OC[C@H]1O[C@H](O[C@H]2[C@H](O)[C@@H](O)[C@H](O)O[C@@H]2CO)[C@H](O)[C@@H](O)[C@@H]1O` [maltose]: in series [2] (setting [17]), the Germination % is reported as 0%, the Root length is 0.8 ± 0.1 mm and the Shoot length is 11.2 ± 0.3 mm. Moreover, the Germination % in series [2] (setting [18]) was 98.8%. In series [2] (setting [19]), the Root length is given as 11.5 ± 0.8 mm and the Shoot length came to 14.2 ± 0.3 mm. In addition, the “% with hyperhydricity” value in series [2] is listed as 100%.

Take `OC[C@@H](O)[C@@H](O)[C@H](O)[C@H](O)CO` [mannitol]: the Germination % in series [2] (setting [17]) turned out to be 24.6 ± 12.7%; in series [2] (setting [18]) it was 100%. In addition, the Root length in series [2] (setting [17]) worked out at 0.3 ± 0.1 mm; in series [2] (setting [19]), 12.0 ± 0.5 mm. The Shoot length in series [2] (setting [17]) is 10.0 ± 0.3 mm; in series [2] (setting [19]), 13.6 ± 0.3 mm. Besides, the “% with hyperhydricity” value in series [2] is 93.5 ± 5.0%.

With `OC[C@@H](O)[C@@H](O)[C@H](O)[C@@H](O)CO` [sorbitol], in series [2] (setting [17]), the Germination % amounted to 5.0 ± 5.0%, the Root length came out at 0.4 ± 0.1 mm and the Shoot length was 10.7 ± 0.3 mm. Moreover, the Germination % in series [2] (setting [18]) stood at 100%. Also, in series [2] (setting [19]), the Root length was found to be 15.5 ± 1.0 mm and the Shoot length is recorded as 14.5 ± 0.4 mm. In addition, the “% with hyperhydricity” value in series [2] is given as 92.6 ± 6.0%.

Turning to “polyethylene glycol (PEG) 4000 [PEG 4000]”, the “% with hyperhydricity” value in series [2] is recorded as 97.5 ± 4.3%.

(Values after patent publication US6689609B1, “Enhancing germination of plant somatic embryos by priming” (Cellfor Inc., priority 1999, dated 2004).)
